# Measurements published in patent US8933098B2, “Dimethyl-benzoic acid compounds” (Eli Lilly and Company, priority 2012, dated 2015).
# Assays:
# [1] = target: human EP3 (isoform VI) (Homo sapiens, UniProt P43115); assay: In vitro binding to human EP3, [3H]-PGE2 displacement on membranes; conditions: HEK293 membranes, n = 1, read-out: hEP3, Ki
# Protocol: hEP1 and hEP4 membranes are prepared from recombinant HEK293 cells stably expressing human EP1 (Genbank accession number AY275470) or EP4 (Genbank accession number AY429109) receptors. hEP2 and hEP3 membranes are prepared from HEK293 cells transiently transfected with EP2 (Genbank accession number AY275471) or EP3 (isoform VI: Genbank accession number AY429108) receptor plasmids. Frozen cell pellets are homogenized in homogenization buffer using a Teflon/glass homogenizer. Membrane protein is aliquoted and quick frozen on dry ice prior to storage at -80° C. Homogenization buffer contained 10 mM Tris-HCl, pH 7.4, 250 mM sucrose, 1 mM EDTA, 0.3 mM indomethacin and plus CompleteTM, with EDTA, obtained from Roche Molecular Biochemicals (Catalog Number 1 697 498). Kd values for [3H]-PGE2 binding to each receptor are determined by saturation binding studies or homologous competition. Compounds are tested in a 96-well format using a three-fold dilution series to generate a 10-point curve. […] The membranes are harvested by filtration (TomTek harvester), washed 4 times with cold buffer (10 mM MES pH 6.0 with KOH, 10 mM MgCl2), dried in a 60° C. oven, and the radioactivity is quantified as counts per minute (CPM) using a TopCount detector. […]
# [2] = target: rat EP4 (Rattus norvegicus (Rat), UniProt P43114); assay: In vitro rat EP4 functional antagonist activity (PGE2-stimulated cAMP, HTRF); format: cell-based; conditions: inhibition of PGE2-stimulated (EC80) cAMP production, HEK293 cells expressing rat EP4; read-out: IC50 measured at rat EP4
# Protocol: To test EP4 antagonist compounds in rEP4 cells, thaw the frozen cells and then resuspend cells in cAMP assay buffer. The cAMP buffer is made by HBSS without Phenol Red (Hyclone, SH30268) supplemented with 20 mM HEPES (Hyclone, SH30237), 0.1% BSA (Gibco, 15260) and 125 μM IBMX (Sigma, 15879). The cells are plated into 96-well half area flat-bottom polystyrene black plates (Costar 3694). […] The cAMP levels generated from the cells are quantified by a cAMP HTRF assay kit (Cisbio 62AM4PEC). The plates are read on an EnVision plate reader using HTRF optimized protocol (PerkinElmer). IC50's are calculated using Graphpad Prism (v. 4) nonlinear regression, sigmoidal dose response curve fitting.
# [3] = target: human EP2 (Homo sapiens (Human), UniProt P43116); assay: In vitro binding to human EP2, [3H]-PGE2 displacement on membranes; conditions: HEK293 membranes, n = 1, read-out: hEP2, Ki
# Protocol: (§1) hEP1 and hEP4 membranes are prepared from recombinant HEK293 cells stably expressing human EP1 (Genbank accession number AY275470) or EP4 (Genbank accession number AY429109) receptors. hEP2 and hEP3 membranes are prepared from HEK293 cells transiently transfected with EP2 (Genbank accession number AY275471) or EP3 (isoform VI: Genbank accession number AY429108) receptor plasmids. Frozen cell pellets are homogenized in homogenization buffer using a Teflon/glass homogenizer. Membrane protein is aliquoted and quick frozen on dry ice prior to storage at −80° C. Homogenization buffer contained 10 mM Tris-HCl, pH 7.4, 250 mM sucrose, 1 mM EDTA, 0.3 mM indomethacin and plus Complete™, with EDTA, obtained from Roche Molecular Biochemicals (Catalog Number 1 697 498).
# (§2) Kd values for [3H]-PGE2 binding to each receptor are determined by saturation binding studies or homologous competition. Compounds are tested in a 96-well format using a three-fold dilution series to generate a 10-point curve. […] The membranes are harvested by filtration (TomTek harvester), washed 4 times with cold buffer (10 mM MES pH 6.0 with KOH, 10 mM MgCl2), dried in a 60° C. oven, and the radioactivity is quantified as counts per minute (CPM) using a TopCount detector. […]
# [4] = target: T1, human EP4 (Homo sapiens (Human), UniProt P35408); assay: In vitro human EP4 functional antagonist activity (PGE2-stimulated cAMP, HTRF); format: cell-based; conditions: read-out: IC50 measured at human EP4
# Text: The raw data are converted to cAMP amount (pmole/well) using a cAMP standard curve generated for each experiment.
# Target sequence in this assay (P35408 whole entry): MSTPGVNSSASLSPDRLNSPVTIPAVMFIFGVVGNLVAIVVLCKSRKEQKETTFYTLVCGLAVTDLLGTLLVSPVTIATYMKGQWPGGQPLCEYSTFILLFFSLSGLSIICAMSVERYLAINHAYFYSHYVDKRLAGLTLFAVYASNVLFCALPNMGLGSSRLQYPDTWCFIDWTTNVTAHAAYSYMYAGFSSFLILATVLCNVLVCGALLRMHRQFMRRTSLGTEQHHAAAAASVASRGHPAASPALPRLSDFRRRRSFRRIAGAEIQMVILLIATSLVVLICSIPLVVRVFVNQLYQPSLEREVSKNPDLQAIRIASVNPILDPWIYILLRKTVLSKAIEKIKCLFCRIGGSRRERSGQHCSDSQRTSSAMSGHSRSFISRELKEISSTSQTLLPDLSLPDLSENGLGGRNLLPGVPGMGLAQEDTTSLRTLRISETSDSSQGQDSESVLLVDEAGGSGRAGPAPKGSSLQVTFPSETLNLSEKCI
# [5] = target: T1, human EP4; assay: In vitro antagonist activity in human whole blood (reversal of PGE2 inhibition of LPS-induced TNFα production); format: cell-based; conditions: read-out: IC50 measured at human EP4, human blood TNFα induction assay
# Target sequence in this assay (P35408 whole entry, looked up): as the sequence (P35408 whole entry) above
# Protocol: Blood is collected from normal volunteer donors into sodium heparin vacutainer tubes. Donors have not taken NSAIDs or celecoxib within 48 hours or glucocorticoids within two weeks of the donation. All tubes/donor are pooled into 50 mL Falcon conical centrifuge tubes and 98 μL/well is distributed into 96-well tissue culture plates (Falcon 3072). […] The plates are incubated for 20-24 hours at 37° C. in a 5% CO2 humidified atmosphere. The plates are centrifuged at 1800×g, 10 minutes at 22° C., in an Eppendorf 5810R centrifuge. Plasma is removed from the cell layer and is transferred to v-bottom polypropylene plates. TNFα levels in 2 μL plasma are quantified by a commercially available enzyme immunoassay (R&D Systems DY210), using Immulon 4 HBX plates (Thermo 3855) and 3,3′,5,5′ tetramethylbiphenyl-4,4′-diamine substrate (KPL 50-76-03). The plates are read at A450-A650 on a plate reader (Molecular Devices Versamax) using SOFTmaxPRO (v. 4.3.1) software. IC50s are calculated using Graphpad Prism (v. 4) nonlinear regression, sigmoidal dose response curve fitting. Results are expressed as the geometric mean±standard deviation; n=number of independent determinations.
# [6] = target: human EP1 (Homo sapiens (Human), UniProt P34995); assay: In vitro binding to human EP1, [3H]-PGE2 displacement on membranes; conditions: HEK293 membranes, n = 1, read-out: hEP1, Ki
# Protocol: as §1, §2
# [7] = target: T1, human EP4; assay: In vitro binding to human EP4, [3H]-PGE2 displacement on membranes; conditions: HEK293 membranes, n = 7, read-out: hEP4, Ki
# Target sequence in this assay (P35408 whole entry, looked up): as the sequence (P35408 whole entry) above
# Protocol: Compounds are tested in a 96-well format using a three-fold dilution series to generate a 10-point curve. […] The binding reaction is performed in 200 μL MES buffer (10 mM MES pH 6.0 with KOH, 10 mM MgCl2 and 1 mM EDTA) using 0.5 mL polystyrene 96-well deep-well plates. […] The membranes are harvested by filtration (TomTek harvester), washed 4 times with cold buffer (10 mM MES pH 6.0 with KOH, 10 mM MgCl2), dried in a 60° C. oven, and the radioactivity is quantified as counts per minute (CPM) using a TopCount detector. […] Data are analyzed using a 4-parameter nonlinear logistic equation (ABase Equation 205) as shown: y=(A+((B−A)/(1+((C/x)^D)))) where, y=% specific inhibition, A=bottom of the curve; B=top of the curve; C=relative IC50 concentration causing 50% inhibition based on the range of the data from top to bottom; D=Hill, Slope=slope of the curve. Ki conversion from IC50 Values (Ki=IC50/(1+[L]/Kd) where [L] is the ligand concentration).
# human EP1, sequence (P34995 whole entry): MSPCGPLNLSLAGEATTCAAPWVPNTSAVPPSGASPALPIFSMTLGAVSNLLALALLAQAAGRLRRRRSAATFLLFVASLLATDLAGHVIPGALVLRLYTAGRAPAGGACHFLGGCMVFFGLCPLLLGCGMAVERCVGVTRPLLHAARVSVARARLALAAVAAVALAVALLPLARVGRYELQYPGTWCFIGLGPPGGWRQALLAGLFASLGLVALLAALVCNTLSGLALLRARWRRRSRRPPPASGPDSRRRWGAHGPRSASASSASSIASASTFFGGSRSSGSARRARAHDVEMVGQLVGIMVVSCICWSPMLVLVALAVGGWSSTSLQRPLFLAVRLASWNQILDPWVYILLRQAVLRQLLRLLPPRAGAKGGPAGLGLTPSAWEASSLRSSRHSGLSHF
# human EP3 (isoform VI), sequence (P43115 whole entry, looked up, canonical isoform): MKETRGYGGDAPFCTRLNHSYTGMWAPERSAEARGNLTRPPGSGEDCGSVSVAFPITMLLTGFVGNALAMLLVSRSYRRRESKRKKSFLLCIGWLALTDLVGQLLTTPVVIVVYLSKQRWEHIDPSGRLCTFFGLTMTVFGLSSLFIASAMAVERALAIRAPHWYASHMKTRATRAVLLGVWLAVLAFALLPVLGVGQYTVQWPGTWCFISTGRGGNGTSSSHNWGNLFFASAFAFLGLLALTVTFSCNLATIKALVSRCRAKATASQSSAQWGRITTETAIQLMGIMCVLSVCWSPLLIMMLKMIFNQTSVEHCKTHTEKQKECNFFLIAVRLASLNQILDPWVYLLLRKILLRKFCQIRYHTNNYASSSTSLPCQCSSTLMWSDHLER
# rat EP4, sequence (P43114 whole entry): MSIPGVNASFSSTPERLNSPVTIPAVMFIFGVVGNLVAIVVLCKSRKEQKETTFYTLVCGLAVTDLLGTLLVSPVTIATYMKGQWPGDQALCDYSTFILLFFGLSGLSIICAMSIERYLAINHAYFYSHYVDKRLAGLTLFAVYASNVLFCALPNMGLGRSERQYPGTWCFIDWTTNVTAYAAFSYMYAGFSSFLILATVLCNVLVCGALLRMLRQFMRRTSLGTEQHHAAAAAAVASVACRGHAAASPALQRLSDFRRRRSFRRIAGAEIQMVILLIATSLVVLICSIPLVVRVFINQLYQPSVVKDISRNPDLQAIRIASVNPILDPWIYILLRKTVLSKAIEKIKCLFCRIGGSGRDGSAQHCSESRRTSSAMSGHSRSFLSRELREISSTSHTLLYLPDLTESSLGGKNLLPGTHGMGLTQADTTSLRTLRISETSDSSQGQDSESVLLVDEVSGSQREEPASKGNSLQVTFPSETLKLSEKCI
# human EP2, sequence (P43116 whole entry, canonical isoform): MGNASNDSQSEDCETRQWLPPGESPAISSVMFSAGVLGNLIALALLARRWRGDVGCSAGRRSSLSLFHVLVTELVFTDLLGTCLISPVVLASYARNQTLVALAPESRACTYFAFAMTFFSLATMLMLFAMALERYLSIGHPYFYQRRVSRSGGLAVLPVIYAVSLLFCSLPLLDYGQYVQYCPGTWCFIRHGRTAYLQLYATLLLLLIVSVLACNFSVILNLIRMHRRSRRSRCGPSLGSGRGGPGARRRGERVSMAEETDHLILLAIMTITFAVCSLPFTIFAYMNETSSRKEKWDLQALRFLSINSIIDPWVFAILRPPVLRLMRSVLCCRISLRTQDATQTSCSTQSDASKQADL
smiles,measurement,setting,value
"Cc1ccc(N2CCC(O)CC2)nc1C(=O)Nc1c(C)cc(C(=O)O)cc1C [Example 1, 4-[[6-(4-hydroxy-1-piperidyl)-3-methyl-pyridine-2-carbonyl]amino]-3,5-dimethyl-benzoic acid]",Ki,[1],> 14000 nM
same,IC50,[2],12 nM
same,Ki,[3],> 18900 nM
same,IC50,[4],5.6 ± 2.8 nM
same,IC50,[5],123 ± 81 nM
same,Ki,[6],> 17500 nM
same,Ki,[7],76 ± 47 nM
